From patent US5994363A (priority 1998, dated 1999)
Values joined by “and” are separate entries in the source; they are usually repeats but may differ in a detail not shown here. Equal values may be shown once. Where a name gives a salt, the structure may show the parent alone.

Legend:
[1] = Duration of vomiting and retching in dog after daily subcutaneous apomorphine HCl (Example 1); type: in vivo
[2] = Penile erectile response ([…] score) with erotic and neutral videos (Example 5); type: in vivo, human; settings: for Total RIGISCAN Score, Erotic 1: N = 31-36, ** significantly higher than placebo 1 and 2
Procedure: Each of the selected subjects' penile erectile response (measured with the […]™ ambulatory tumescence monitor) was evaluated using the scoring system as set out in Table IX, below.
The combining of the scores of A, B, C, and D from Table IX yields a total score for each subject. A total score of less than 16 for any individual subject indicates erectile dysfunction.
Patients not experiencing nausea or any other significant adverse effects within fifteen minutes post-dosing with APO or placebo viewed segments of standardized erotic videos to provide sexual stimulation. […] The duration of the testing session for each dose level lasted between 45 and 60 minutes.
This aim was accomplished during the first two phases of the study in which subjects were attached to the […]™ monitor. Subjects were initially treated with placebo, followed by APO 4, 6, and 8 mg. tablets with a placebo tablet randomly interspersed in the treatment.

For `CN1CCc2cccc3c2[C@H]1Cc1ccc(O)c(O)c1-3` [apomorphine HCl], the “time to acclimatization (retching and vomiting)” value ([1]; 0.4 mg/kg/day s.c.) was “about 10 days”, the “effect of escalation on vomiting/retching” value ([1]; 0.8 mg/kg/day after 21 days at 0.4 mg/kg/day) was “no evidence of an increase in vomiting/retching” and the “wash out period required to establish homeostasis” value ([1]; after CNS supersensitivity) was 4 to 6 weeks. For the same compound, the “effect of increasing dose by 100% of the acclimation dose on duration” value ([1]; after acclimation established) was “no corresponding increase in the duration of retching and vomiting”, the movement disorders ([1]; dose reduced from 1.2 to 0.8 mg/kg/day) was “movement disorders were again observed” and the “average duration of retching/vomiting period” value ([1]; following daily administration) was “about 5 minutes”. For the same compound, the “average duration of retching/vomiting period” value ([1]; following initial dose) was “about 30 minutes”, the “time to acclimatization (retching and vomiting)” value ([1]; lower doses (0.05 mg/kg start), s.c. daily) was no more than 3 days and the “effect of challenge on duration of vomiting” value ([1]; lower doses, after 12 days, dose 100% greater than acclimatized dose) was “Only a small increase in the duration of vomiting”. The “RIGISCAN score, erotic #1, comparison in words” value ([2]; 4 mg, Site #1) was “slightly lower”, the “Penile Measurements (Maximum Increases), LSMEAN, NEUTRAL” value ([2]; 4 mg, b698 all sites, b704 site #1, b710 #2, b716 #3, b722 #4, listed as APO) was 8.70 and the “Total RIGISCAN Score, Erotic 1” value ([2]; 6 mg) was 17.09 ± 1.64. The “Penile Measurements (Maximum Increases), MEAN, NEUTRAL” value ([2]; 6 mg, b699 all sites, b705 site #1, b711 #2, b717 #3, b723 #4, listed as APO) was 9.60, the “Total RIGISCAN Score, Erotic 1” value ([2]; 8 mg) was 19.84 ± 1.61 and the “Total RIGISCAN Score, Neutral” value ([2]; 8 mg, N = 41-48, **) was 11.95 ± 1.37. The “Penile Measurements (Maximum increase), Mean, EROTIC #1” value ([2]; 8 mg, all sites, site #1, #2, #4, listed as APO) was 19.84 and 15.60 and 25.00, the “RIGISCAN scores, treatment effect vs second placebo in words” value ([2]; 4, 6, and 8 mg) was “most of the treatment effects were significant to highly significant compared to the second placebo” and the “RIGISCAN scores, treatment effect in words” value ([2]; 4, 6, and 8 mg vs initial placebo) was “significant to highly significant”. The “RIGISCAN scores for penile increases in words” value ([2]; active doses, each of four sites, neutral and erotic sequences) was “improved significantly” and the “RIGISCAN reading, effective in causing erections” value ([2]; all doses, erotic stimulation) was “greater than or equal to 15”.
